Reference: patent publication US20110039721A1, “METHOD FOR PREDICTION ABOUT CARCINOGENICITY OF SUBSTANCE IN RODENT” (Chemicals Evaluation and Research Institute, priority 2007, published 2011)

Columns and labels:
rodent = settings: classification of the substance (C+/C−); cited from earlier work
[1] = test system: mRNA expressed from the genes (A) to (D) in rat liver; assay: Behavior of genes (mRNA expression level, oligo-DNA microarray) in rat liver after 28-day oral administration; assay type: in vivo; settings: for Behavior of gene caused by administration of chemical substance, Gene No. 4846 / Behavior of gene caused by administration of chemical substance, Gene No. 2026 / Behavior of gene caused by administration of chemical substance, Gene No. 4218 / Behavior of gene caused by administration of chemical substance, Gene No. 6182 / Behavior of gene caused by administration of chemical substance, Gene No. 5600: gene group (A); for Behavior of gene caused by administration of chemical substance, Gene No. 4846: Unigene No. Rn.144554; for Behavior of gene caused by administration of chemical substance, Gene No. 2026 / Behavior of gene caused by administration of chemical substance, Gene No. 4218: Unigene No. Rn.167075; for Behavior of gene caused by administration of chemical substance, Gene No. 6182: Unigene No. Rn.5834; for Behavior of gene caused by administration of chemical substance, Gene No. 5600: Unigene No. Rn.9836; for Behavior of gene caused by administration of chemical substance, Gene No. 1494 / Behavior of gene caused by administration of chemical substance, Gene No. 2045 / Behavior of gene caused by administration of chemical substance, Gene No. 2203: gene group (B); for Behavior of gene caused by administration of chemical substance, Gene No. 1494: Unigene No. Rn.1430; for Behavior of gene caused by administration of chemical substance, Gene No. 2045: Unigene No. Rn.19329; for Behavior of gene caused by administration of chemical substance, Gene No. 2203: Unigene No. Rn.21240; for Behavior of gene caused by administration of chemical substance, Gene No. 533 / Behavior of gene caused by administration of chemical substance, Gene No. 725 / Behavior of gene caused by administration of chemical substance, Gene No. 1163 / Behavior of gene caused by administration of chemical substance, Gene No. 4973 / Behavior of gene caused by administration of chemical substance, Gene No. 4095 / Behavior of gene caused by administration of chemical substance, Gene No. 1334 / Behavior of gene caused by administration of chemical substance, Gene No. 6620 / Behavior of gene caused by administration of chemical substance, Gene No. 6303 / Behavior of gene caused by administration of chemical substance, Gene No. 5878 / Behavior of gene caused by administration of chemical substance, Gene No. 1131 / Behavior of gene caused by administration of chemical substance, Gene No. 1562 / Behavior of gene caused by administration of chemical substance, Gene No. 1741 / Behavior of gene caused by administration of chemical substance, Gene No. 893 / Behavior of gene caused by administration of chemical substance, Gene No. 6026 / Behavior of gene caused by administration of chemical substance, Gene No. 154 / Behavior of gene caused by administration of chemical substance, Gene No. 1993 / Behavior of gene caused by administration of chemical substance, Gene No. 813 / Behavior of gene caused by administration of chemical substance, Gene No. 2494 / Behavior of gene caused by administration of chemical substance, Gene No. 2546 / Behavior of gene caused by administration of chemical substance, Gene No. 3776 / Behavior of gene caused by administration of chemical substance, Gene No. 3929 / Behavior of gene caused by administration of chemical substance, Gene No. 1119 / Behavior of gene caused by administration of chemical substance, Gene No. 6742 / Behavior of gene caused by administration of chemical substance, Gene No. 5634: gene group (C); for Behavior of gene caused by administration of chemical substance, Gene No. 533: Unigene No. Rn.106184; for Behavior of gene caused by administration of chemical substance, Gene No. 725: Unigene No. Rn.108075; for Behavior of gene caused by administration of chemical substance, Gene No. 1163: Unigene No. Rn.11766; for Behavior of gene caused by administration of chemical substance, Gene No. 4973: Unigene No. Rn.118529; for Behavior of gene caused by administration of chemical substance, Gene No. 4095: Unigene No. Rn.119024; for Behavior of gene caused by administration of chemical substance, Gene No. 1334 / Behavior of gene caused by administration of chemical substance, Gene No. 6620: Unigene No. Rn.120914; for Behavior of gene caused by administration of chemical substance, Gene No. 6303: Unigene No. Rn.123063; for Behavior of gene caused by administration of chemical substance, Gene No. 5878: Unigene No. Rn.143213; for Behavior of gene caused by administration of chemical substance, Gene No. 1131: Unigene No. Rn.144946; for Behavior of gene caused by administration of chemical substance, Gene No. 1562: Unigene No. Rn.14744; for Behavior of gene caused by administration of chemical substance, Gene No. 1741: Unigene No. Rn.1647; for Behavior of gene caused by administration of chemical substance, Gene No. 893: Unigene No. Rn.164817; for Behavior of gene caused by administration of chemical substance, Gene No. 6026: Unigene No. Rn.167685; for Behavior of gene caused by administration of chemical substance, Gene No. 154: Unigene No. Rn.185941; for Behavior of gene caused by administration of chemical substance, Gene No. 1993: Unigene No. Rn.18728; for Behavior of gene caused by administration of chemical substance, Gene No. 813: Unigene No. Rn.201760; for Behavior of gene caused by administration of chemical substance, Gene No. 2494: Unigene No. Rn.23969; for Behavior of gene caused by administration of chemical substance, Gene No. 2546: Unigene No. Rn.24561; for Behavior of gene caused by administration of chemical substance, Gene No. 3776: Unigene No. Rn.43232; for Behavior of gene caused by administration of chemical substance, Gene No. 3929: Unigene No. Rn.4620; for Behavior of gene caused by administration of chemical substance, Gene No. 1119: Unigene No. Rn.9757; for Behavior of gene caused by administration of chemical substance, Gene No. 6742: Unigene No. Rn.9779; for Behavior of gene caused by administration of chemical substance, Gene No. 5634: Unigene No. Rn.9862; for Behavior of gene caused by administration of chemical substance, Gene No. 5726: gene group (D), Unigene No. Rn.9939
Procedure, shortened: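 Male F344 SPF rats, 5 weeks old, four per group, received carcinogens, non-carcinogens or solvent vehicle by oral gavage once daily for 28 days. Liver total RNA was then extracted. Changes of ≥1.5-fold or ≤1/1.5 versus vehicle control, in a consistent direction across carcinogens, counted as significant.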

liver = settings: classification of the substance (Cr+/Cr−); cited from earlier work
[2] = classification of the substance (M+/M−); cited from earlier work

Structure (SMILES)	Carcinogenicity (rodent)	Behavior of gene caused by administration of chemical substance, Gene No. 4846 [1]	Behavior of gene caused by administration of chemical substance, Gene No. 2026 [1]	Behavior of gene caused by administration of chemical substance, Gene No. 4218 [1]	Behavior of gene caused by administration of chemical substance, Gene No. 6182 [1]	Behavior of gene caused by administration of chemical substance, Gene No. 5600 [1]	Behavior of gene caused by administration of chemical substance, Gene No. 1494 [1]	Behavior of gene caused by administration of chemical substance, Gene No. 2045 [1]	Behavior of gene caused by administration of chemical substance, Gene No. 2203 [1]	Behavior of gene caused by administration of chemical substance, Gene No. 533 [1]	Behavior of gene caused by administration of chemical substance, Gene No. 725 [1]	Behavior of gene caused by administration of chemical substance, Gene No. 1163 [1]	Behavior of gene caused by administration of chemical substance, Gene No. 4973 [1]	Behavior of gene caused by administration of chemical substance, Gene No. 4095 [1]	Behavior of gene caused by administration of chemical substance, Gene No. 1334 [1]	Behavior of gene caused by administration of chemical substance, Gene No. 6620 [1]	Behavior of gene caused by administration of chemical substance, Gene No. 6303 [1]	Behavior of gene caused by administration of chemical substance, Gene No. 5878 [1]	Behavior of gene caused by administration of chemical substance, Gene No. 1131 [1]	Behavior of gene caused by administration of chemical substance, Gene No. 1562 [1]	also measured
Nc1cc([N+](=O)[O-])ccc1C(=O)O [TS082, 4-Nitroanthranilic acid]	C−	−	−	−	+	−	+	−	−	+	−	−	+	+	−	−	+	−	+	+	Behavior of gene caused by administration of chemical substance, Gene No. 1741 [1]: +; Behavior of gene caused by administration of chemical substance, Gene No. 893 [1]: +; Behavior of gene caused by administration of chemical substance, Gene No. 6026 [1]: −; Behavior of gene caused by administration of chemical substance, Gene No. 154 [1]: +; Behavior of gene caused by administration of chemical substance, Gene No. 1993 [1]: +; Behavior of gene caused by administration of chemical substance, Gene No. 813 [1]: −; Behavior of gene caused by administration of chemical substance, Gene No. 2494 [1]: −; Behavior of gene caused by administration of chemical substance, Gene No. 2546 [1]: +; Behavior of gene caused by administration of chemical substance, Gene No. 3776 [1]: +; Behavior of gene caused by administration of chemical substance, Gene No. 3929 [1]: +; Behavior of gene caused by administration of chemical substance, Gene No. 1119 [1]: +; Behavior of gene caused by administration of chemical substance, Gene No. 6742 [1]: +; Behavior of gene caused by administration of chemical substance, Gene No. 5634 [1]: +; Behavior of gene caused by administration of chemical substance, Gene No. 5726 [1]: −; Liver carcinogenicity (liver): Cr−; Mutagenicity by Ames test [2]: M+
O=C([O-])c1ccccc1.[Na+] [TS084, Sodium benzoate]	C−	−	−	−	+	−	+	−	−	+	−	−	+	−	−	−	−	−	−	−	Behavior of gene caused by administration of chemical substance, Gene No. 1741 [1]: −; Behavior of gene caused by administration of chemical substance, Gene No. 893 [1]: −; Behavior of gene caused by administration of chemical substance, Gene No. 6026 [1]: −; Behavior of gene caused by administration of chemical substance, Gene No. 154 [1]: −; Behavior of gene caused by administration of chemical substance, Gene No. 1993 [1]: −; Behavior of gene caused by administration of chemical substance, Gene No. 813 [1]: −; Behavior of gene caused by administration of chemical substance, Gene No. 2494 [1]: −; Behavior of gene caused by administration of chemical substance, Gene No. 2546 [1]: −; Behavior of gene caused by administration of chemical substance, Gene No. 3776 [1]: −; Behavior of gene caused by administration of chemical substance, Gene No. 3929 [1]: −; Behavior of gene caused by administration of chemical substance, Gene No. 1119 [1]: −; Behavior of gene caused by administration of chemical substance, Gene No. 6742 [1]: +; Behavior of gene caused by administration of chemical substance, Gene No. 5634 [1]: −; Behavior of gene caused by administration of chemical substance, Gene No. 5726 [1]: −; Liver carcinogenicity (liver): Cr−; Mutagenicity by Ames test [2]: M−
